Measured values reported in patent publication US5223504A, “Xanthine compounds and compositions, and methods of using them” (Laboratorios Almirall SA, priority 1989, dated 1993).

What was measured:
[1] = tested on: isolated guinea-pig ventricles; conditions: literature (Gristwood and Owen, Br. J. Pharmacol., 87, 91P., 1985); cited from earlier work
PDE III = molecular target: T1, PDE III (Cavia porcellus, UniProt H0VIU9); experiment: Non-sensitized guinea-pig right ventricle strips: increase in developed tension (PDE III inhibitory activity); format: cell-based; conditions: concentration causing 50% increase in developed tension; untreated (non-sensitized) strips; 37° C., 1 Hz; read-out: Guinea-Pig Non-Sensitized right ventricle strips (EC50μ M)
T1 construct: their hearts were removed and 2 ventricular preparations; from tissue; host or cells: guinea-pig right ventricle strips
T1 sequence (H0VIU9 1-1132): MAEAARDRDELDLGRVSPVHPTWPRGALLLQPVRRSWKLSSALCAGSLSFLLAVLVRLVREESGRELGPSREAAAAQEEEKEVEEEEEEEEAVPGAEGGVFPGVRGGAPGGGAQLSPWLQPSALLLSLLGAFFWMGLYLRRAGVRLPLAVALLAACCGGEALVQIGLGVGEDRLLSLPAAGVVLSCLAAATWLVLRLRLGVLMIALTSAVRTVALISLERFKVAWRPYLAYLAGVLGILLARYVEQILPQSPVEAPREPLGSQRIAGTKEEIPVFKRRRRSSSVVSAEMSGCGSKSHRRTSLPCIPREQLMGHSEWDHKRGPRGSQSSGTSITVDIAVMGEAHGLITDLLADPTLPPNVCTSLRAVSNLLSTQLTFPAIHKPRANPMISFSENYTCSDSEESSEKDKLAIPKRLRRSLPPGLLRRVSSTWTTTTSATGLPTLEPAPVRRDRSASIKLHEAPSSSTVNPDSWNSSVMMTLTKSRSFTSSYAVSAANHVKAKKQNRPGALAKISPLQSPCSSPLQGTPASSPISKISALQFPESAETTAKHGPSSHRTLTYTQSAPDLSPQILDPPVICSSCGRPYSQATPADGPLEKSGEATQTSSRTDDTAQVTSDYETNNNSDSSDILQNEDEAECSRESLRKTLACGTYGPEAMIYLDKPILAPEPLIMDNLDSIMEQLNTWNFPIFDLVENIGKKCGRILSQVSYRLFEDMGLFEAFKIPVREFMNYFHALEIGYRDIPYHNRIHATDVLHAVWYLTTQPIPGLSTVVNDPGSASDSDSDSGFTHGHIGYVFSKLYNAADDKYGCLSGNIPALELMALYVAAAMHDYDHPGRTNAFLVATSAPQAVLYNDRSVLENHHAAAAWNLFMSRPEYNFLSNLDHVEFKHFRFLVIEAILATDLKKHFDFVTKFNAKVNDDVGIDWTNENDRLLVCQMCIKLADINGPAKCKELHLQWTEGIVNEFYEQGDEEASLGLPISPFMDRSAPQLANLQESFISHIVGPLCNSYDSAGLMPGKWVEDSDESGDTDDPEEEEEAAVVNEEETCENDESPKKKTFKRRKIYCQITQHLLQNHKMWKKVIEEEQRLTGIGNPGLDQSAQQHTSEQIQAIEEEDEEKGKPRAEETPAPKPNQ
Procedure: (§1) There is, however, a synergistic interaction between selective PDE III and PDE IV inhibitors in guinea-pig ventricle. […] There were then mounted in organ baths containing modified Krebs-Henseleit solution of the following composition (mM): NaCl 118; NaHCO3 25; Glucose 11; KCl 5.4; CaCl2 2.5; NaH2PO4 1.2 and MgCl2 0.8. The physiological buffer was maintained at 37° C. and continually aerated with 95% O2 / 5% CO2 v/v. The preparations were placed under 1 g resting tension and electrically stimulated to contract at 1 Hz whilst force of contraction was measured using an isometric force transducer. Preparations were equilibrated for 60 minutes during which they were washed every 15 minutes with fresh buffer. […] Concentrations causing a 50% increase (EC50) were calculated.

PDE IV = experiment: Guinea-pig right ventricle strips sensitized with a PDE III inhibitor (e.g. amrinone): increase in developed tension (PDE IV inhibitory activity); format: cell-based; conditions: concentration causing 50% increase in developed tension; strips pre-treated with selective PDE III inhibitor (e.g. amrinone) 10 minutes before; 37° C., 1 Hz; read-out: Guinea-Pig Sensitized right ventricle strips (EC50μ M)
Procedure: as §1

Row | Structure (SMILES) | inotropic response in isolated guinea-pig ventricles [1] | EC50 (PDE III) [µM] | EC50 (PDE IV) [µM]
1 | COc1ccc(C2CNC(=O)C2)cc1OC1CCCC1 (stereo not shown) [rolipram] | have no effect |  | 
2 | CCCn1c(=O)c2[nH]cnc2n(-c2ccc(Cl)c(Cl)c2)c1=O [Compound 12, 1-n-propyl-3-(3,4-dicholorophenyl)-xanthine] |  | > 100 | 1.3
3 | CCCCn1c(=O)c2[nH]cnc2n(-c2ccc(F)cc2)c1=O [Compound 18] |  | > 100 | 0.2
4 | CCCn1c(=O)c2[nH]cnc2n(-c2cccc([N+](=O)[O-])c2)c1=O [Compound 10] |  | > 100 | 0.4
5 | CCCn1c(=O)c2[nH]cnc2n(-c2cccc(OC)c2)c1=O [Compound 9] |  | > 100 | 0.2
6 | CCCn1c(=O)c2[nH]cnc2n(-c2cccc(Cl)c2)c1=O [Compound 2] |  | > 100 | 0.1
7 | Cn1c(=O)c2[nH]cnc2n(-c2ccccc2)c1=O [Compound A, 1methyl-3-phenylxanthine, reference compound] |  | > 100 | 8.9
8 | CCCCn1c(=O)c2[nH]cnc2n(-c2ccc(OC)cc2)c1=O [Compound 20] |  | > 100 | 0.3
9 | CCCn1c(=O)c2[nH]cnc2n(-c2ccc(Cl)cc2)c1=O [Compound 1, 1-n-propyl-3-(4-chlorophenyl)-xanthine] |  | > 100 | 1.6
10 | CCCCn1c(=O)c2[nH]cnc2n(-c2cccc(OC)c2)c1=O [Compound 21, 1-n-butyl-3-(3-methoxyphenyl)-xanthine] |  | > 100 | 1.2
11 | CCCCCCn1c(=O)c2[nH]cnc2n(-c2ccc3c(c2)OCO3)c1=O [Compound 36, 1-n-hexyl-3-(3,4-methylenedioxyphenyl)-xanthine] |  | > 100 | 1
12 | CCCn1c(=O)c2[nH]cnc2n(-c2ccc(Br)cc2)c1=O [Compound 5] |  | > 100 | 0.9
13 | Cn1c(=O)c2[nH]cnc2n(C)c1=O [THEOPHYLLINE, reference compound] |  | 1000 | 1520
14 | CC(=O)Nc1ccc(-c2c[nH]c(=O)cn2)cc1 [SK&F 94120] | produce a positive inotropic response |  | 
15 | CCCn1c(=O)c2[nH]c(C)nc2n(-c2ccccc2)c1=O [Compound B, 1propyl-3-phenyl-8-methylxanthine, reference compound] |  | > 100 | 7
